In one series the test system is 3T3-L1. Put plainly: Anti-adipogenic activity in mouse 3T3-L1 preadipocytes assessed as decrease in adipocyte numbers at 20 uM measured after 7 days by Oil Red O staining based inverted phase contrast microscopic analysis. Format: functional, cell-based. The following applies: time 7.0 day.
In series [1] the test system is Mesenchymal stem cells. Description: Anti-adipogenic activity in human bone marrow derived Mesenchymal stem cells assessed as reduction in adipocyte count at 5 to 20 uM after 21 days by Oil Red O staining based inverted phase contrast microscopic analysis. Format: functional, cell-based. To be noted: dose 5-20 µM, time 21.0 day.
Series [2] has as its system Mesenchymal stem cells. Put plainly: Anti-adipogenic activity in human derived bone marrow mesenchymal stem cells assessed as glycerol release at 20 uM incubated for 12 hrs by colorimetric analysis relative to control. Type of series: functional.
In series [3] the test system is Mesenchymal stem cells. Put plainly: Anti-adipogenic activity against human bone marrow derived Mesenchymal stem cells assessed as downregulation of C/EBPbeta mRNA expression at 20 uM measured after 7 days by qRT-PCR analysis. Type of series: functional, cell-based. To be noted: time 7.0 day.
Series [4] concerns Mesenchymal stem cells. Put plainly: Anti-adipogenic activity in human derived bone marrow mesenchymal stem cells assessed as reduction in adiponectin release measured after 21 days by flow cytometry analysis. The following applies: time 21.0 day. Format: functional, cell-based.
Series [5] concerns Mesenchymal stem cells. Description: Inhibition of lipid droplet accumulation in human bone marrow derived Mesenchymal stem cells at 10 to 20 uM by Oil red o staining based microplate reader analysis. To be noted: dose 10-20 µM. Type of series: functional, cell-based.
For series [6], the system named is Mesenchymal stem cells. Description: Downregulation of IL6 level in human bone marrow derived mesenchymal stem cells at 5 to 20 uM measured after 48 hrs by flow cytometric analysis. Format: functional, cell-based. The following applies: dose 5-20 µM.
For series [7], the system named is Mesenchymal stem cells. Description: Anti-adipogenic activity against human bone marrow derived Mesenchymal stem cells assessed as downregulation of SREBP-1c mRNA expression at 20 uM measured after 7 days by qRT-PCR analysis. Type of series: functional, cell-based. To be noted: time 7.0 day.
In series [8] the test system is Mesenchymal stem cells. Description: Downregulation of RBP4 level in human bone marrow derived mesenchymal stem cells at 5 to 20 uM measured after 48 hrs by flow cytometric analysis. To be noted: dose 5-20 µM. Format: functional, cell-based.
Series [9] has as its system Mesenchymal stem cells. Description: Upregulation of adiponectin level in human bone marrow derived mesenchymal stem cells at 5 to 20 uM measured after 48 hrs by flow cytometric analysis. To be noted: dose 5-20 µM. Type of series: functional, cell-based.
The subject of series [10] is Mesenchymal stem cells. Put plainly: Downregulation of MCP-1 level in human bone marrow derived mesenchymal stem cells at 5 to 20 uM measured after 48 hrs by flow cytometric analysis. Type of series: functional, cell-based. The following applies: dose 5-20 µM.
Series [11] relates to Mesenchymal stem cells. Description: Anti-adipogenic activity in human derived bone marrow mesenchymal stem cells assessed as glycerol release at 10 uM incubated for 12 hrs by colorimetric analysis relative to control. Type of series: functional.
In series [12] the test system is Mesenchymal stem cells. Put plainly: Antidiabetic activity in human bone marrow mesenchymal stem cells assessed as glucose uptake by measuring 2-DG6P level at 15 to 20 uM by glucose uptake assay. Format: functional, cell-based. To be noted: dose 15-20 µM.
The subject of series [13] is Mesenchymal stem cells. Put plainly: Upregulation of adipsin level in human bone marrow derived mesenchymal stem cells at 5 to 20 uM measured after 48 hrs by flow cytometric analysis. Type of series: functional, cell-based. To be noted: dose 5-20 µM.
Series [14] relates to Mesenchymal stem cells. Description: Anti-adipogenic activity in human derived bone marrow derived Mesenchymal stem cells assessed as reduction in PPARgamma expression at 20 uM measured after 7 days by Western blot analysis. Format: functional, cell-based. To be noted: time 7.0 day.
Series [15] deals with Mesenchymal stem cells. Put plainly: Anti-adipogenic activity in human derived bone marrow mesenchymal cells assessed as downregulation of FABP4 mRNA expression at 10 to 20 uM measured on day 21 by qRT-PCR analysis. Format: functional, cell-based. To be noted: dose 10-20 µM, time 21.0 day.
The test system of series [16] is Mesenchymal stem cells. Put plainly: Anti-adipogenic activity in human derived bone marrow mesenchymal cells assessed as downregulation of LPL mRNA expression at 10 to 20 uM measured on day 21 by qRT-PCR analysis. The following applies: dose 10-20 µM, time 21.0 day. Format: functional, cell-based.
Series [17] concerns Mesenchymal stem cells. Description: Anti-adipogenic activity against human bone marrow derived Mesenchymal stem cells assessed as downregulation of PPARG mRNA expression at 20 uM measured after 7 days by qRT-PCR analysis. Format: functional, cell-based. To be noted: time 7.0 day.
Series [18] has as its system Mesenchymal stem cells. Put plainly: Anti-adipogenic activity in human derived bone marrow derived Mesenchymal stem cells assessed as downregulation of C/EBPalpha protein expression at 20 uM measured after 7 days by western blot analysis. Type of series: functional, cell-based. To be noted: time 7.0 day.
Series [19] deals with Mesenchymal stem cells. Description: Cytotoxicity against human bone marrow derived Mesenchymal stem cells assessed as reduction in cell viability at 1 to 20 uM incubated for 1 to 10 days by MTT assay. Format: toxicity, cell-based. The following applies: dose lower 1 µM, time lower 1 day, dose upper 20 µM, time upper 10 day.
Series [20] has as its system Mesenchymal stem cells. Description: Anti-adipogenic activity in human derived bone marrow mesenchymal stem cells assessed as reduction in adipsin release measured after 21 days by flow cytometry analysis. Type of series: functional, cell-based. To be noted: time 21.0 day.
Series [21] deals with Mesenchymal stem cells. Put plainly: Anti-adipogenic activity in human derived bone marrow mesenchymal cells assessed as downregulation of GLUT4 mRNA expression at 10 to 20 uM measured on day 21 by qRT-PCR analysis. The following applies: dose 10-20 µM, time 21.0 day. Type of series: functional, cell-based.
Series [22] relates to Mesenchymal stem cells. Description: Inhibition of lipid droplet accumulation in human bone marrow derived Mesenchymal stem cells at 5 to 20 uM incubated for 21 days by Oil red o staining based microplate reader analysis. Type of series: functional, cell-based. To be noted: dose 5-20 µM, time 21.0 day.
In series [23] the test system is Mesenchymal stem cells. Description: Anti-adipogenic activity in human derived bone marrow mesenchymal stem cells assessed as glycerol release at 5 uM incubated for 12 hrs by colorimetric analysis relative to control. Type of series: functional.
For series [24], the system named is Mesenchymal stem cells. Put plainly: Anti-adipogenic activity against human bone marrow derived Mesenchymal stem cells assessed as downregulation of C/EBPalpha mRNA expression at 20 uM measured after 7 days by qRT-PCR analysis. Format: functional, cell-based. The following applies: time 7.0 day.
Series [25] has as its system Mesenchymal stem cells. Put plainly: Downregulation of IL8 level in human bone marrow derived mesenchymal stem cells at 5 to 20 uM measured after 48 hrs by flow cytometric analysis. Type of series: functional, cell-based. To be noted: dose 5-20 µM.
The subject of series [26] is Mesenchymal stem cells. Put plainly: Anti-adipogenic activity in human derived bone marrow mesenchymal stem cells assessed as reduction in […] release measured after 21 days by flow cytometry analysis. Type of series: functional, cell-based. To be noted: time 21.0 day.

Each structure is given as a SMILES string. Calls of active or inactive are those of the source. No cut-off for these calls is given here.

In the case of `COC(=O)C1=CO[C@@H](O)[C@@H]2C(CO)=CC[C@H]12`, the outcome with 3T3-L1 was Active.
On the same count and under the same terms, the result for `COC(=O)C1=CO[C@@H](OC)[C@@H]2C(Cn3cc(COCc4ccccc4)nn3)=CC[C@H]12` reads “Active”.
With `COC(=O)C1=CO[C@@H](OC)[C@@H]2C(Cn3cc(-c4ccccc4)nn3)=CC[C@H]12`, the result in the series on 3T3-L1 was Active.
In the case of `COC(=O)C1=CO[C@@H](OC)[C@@H]2C(Cn3cc(CCCOC(c4ccccc4)(c4ccccc4)c4ccccc4)nn3)=CC[C@H]12`, the outcome in the series with Mesenchymal stem cells [1], in the series with 3T3-L1, in the series with Mesenchymal stem cells [3], in the series on Mesenchymal stem cells [4], in the series with Mesenchymal stem cells [6] and in the series with Mesenchymal stem cells [7] was Active. The outcome in the series with Mesenchymal stem cells [8], in the series with Mesenchymal stem cells [9], in the series with Mesenchymal stem cells [10], in the series with Mesenchymal stem cells [12], in the series on Mesenchymal stem cells [13] and with Mesenchymal stem cells [14] was Active. Also, the result with Mesenchymal stem cells [15], in the series on Mesenchymal stem cells [16], in the series with Mesenchymal stem cells [17], in the series with Mesenchymal stem cells [18], with Mesenchymal stem cells [20] and in the series with Mesenchymal stem cells [21] was Active. Further, the result with Mesenchymal stem cells [24], in the series with Mesenchymal stem cells [25] and in the series on Mesenchymal stem cells [26] was Active. Further, the Activity is given as 33% with Mesenchymal stem cells [2], 25% in the series with Mesenchymal stem cells [11], “Non-Toxic” in the series on Mesenchymal stem cells [19] and 17% in the series with Mesenchymal stem cells [23]. Moreover, the inhibition result in the series with Mesenchymal stem cells [5] and in the series on Mesenchymal stem cells [22] was “Active” throughout.
Regarding `COC(=O)C1=CO[C@@H](OC)[C@@H]2C(Cn3cc(CCBr)nn3)=CC[C@H]12`, in the series on 3T3-L1, the result was Active.
On the same count and under the same terms, the result for `COC(=O)C1=CO[C@@H](OC)[C@@H]2C(Cn3cc(COCCc4ccccc4)nn3)=CC[C@H]12` reads “Active”; that for `CCCCCCCCCCCCCCCCCCOCc1cn(CC2=CC[C@@H]3C(C(=O)OC)=CO[C@@H](OC)[C@H]23)nn1`, “Active”; that for `COC(=O)C1=CO[C@@H](OC)[C@@H]2C(Cn3cc(COCc4cc(OC)ccc4OC)nn3)=CC[C@H]12`, “Active”.
On the same count and under the same terms, the result for `COC(=O)C1=CO[C@@H](OC)[C@@H]2C(Cn3cc(C(O)(c4ccccc4)c4ccccc4)nn3)=CC[C@H]12` reads “Active”.
Still for that read-out and setting: the result for `COC(=O)C1=CO[C@@H](OC)[C@@H]2C(Cn3cc(COc4cc(C=O)ccc4OC)nn3)=CC[C@H]12` reads “Active”.
With `COC(=O)C1=CO[C@@H](OC)[C@@H]2C(Cn3cc(C4(O)CCCCC4)nn3)=CC[C@H]12`, in the series on 3T3-L1, the outcome was Active.
Consider `COC(=O)C1=CO[C@@H](OC)[C@@H]2C(Cn3cc(COCc4ccc(OC)c(OC)c4)nn3)=CC[C@H]12`, for which the outcome in the series on 3T3-L1 was Active.
As to `COC(=O)C1=CO[C@@H](OC)[C@@H]2C(Cn3cc(COc4ccc5ccc(=O)oc5c4)nn3)=CC[C@H]12`, the result in the series with 3T3-L1 was Active.
